Measured values published in paper PMC8235223, “Four New Chromones from the Endophytic Fungus Phomopsis asparagi DHS-48 Isolated from the Chinese Mangrove Plant Rhizophora mangle” (Marine Drugs, 2021).

What was measured:
Type in all cases: cell-based
[1] = system: ConA-induced T murine splenic lymphocytes; experiment: ConA-induced T-cell proliferation, immunosuppressive assay (CCK-8); details: Mus musculus, Splenic lymphocyte; ConA-induced murine splenic T lymphocytes in vitro, n = 3
Method: (§1) Female BALB/c mice (6–8 weeks old, 20 ± 2 g) were purchased from the Department of Laboratory Animal Science (Hainan Medicinal University, China). The mice were sacrificed by cervical dislocation, and their spleens were collected in complete RPMI 1640 medium, which was minced with surgical scissors in a germ-free condition. The suspension was then filtered through a sterile sieve mesh to obtain the single cell suspension. After centrifugation (1000 rpm at 4 °C for 5 min), the resulting cells were treated with erythrocytes lysis buffer, followed by washing twice with cold phosphate-buffered saline (PBS). Then, the cells were adjusted to the concentration of 5 × 10^6 cells/mL and resuspended in RPMI 1640 medium supplemented with 10% heat-inactivated fetal bovine serum (FBS).
(§2) Compounds 1–8 were evaluated for immunosuppressive activity against the proliferation of concanavalin A (ConA)-induced T and lipopolysaccharide (LPS)-induced B murine splenic lymphocyte in vitro using a CCK-8 method according to previously reported methods. Cyclosporine A was used as a positive control.

[2] = system: LPS-induced B murine splenic lymphocytes; experiment: LPS-induced B-cell proliferation, immunosuppressive assay (CCK-8); details: Mus musculus, Splenic lymphocyte; LPS-induced murine splenic B lymphocytes in vitro, n = 3
Method: as §1, §2

[3] = Cell viability (cytotoxicity) CCK-8 assay on murine splenocytes; details: female, BALB/c, mouse, murine splenocytes (spleen lymphocytes), CCK-8 method, mean of n = 3
Method: as §1
Cell viability of compounds 1–8 were measured using the tetrazolium salt-based CCK-8 assay according to a previously described protocol with some modifications. Spleen lymphocytes were seeded into 96-well plates at a density of 2 × 10^6 cells/mL onto 96-well plates containing 100 μL of RPMI1640 complete medium (triplicate wells). Then, the cells were treated with 100 μL of various concentrations (3 μg/mL, 6 μg/mL, 12 μg/mL, 25 μg/mL, 50 μg/mL) of isolated compounds or cyclosporine (CsA) at 37 °C with a 5% CO2 incubator for 44 h. […] The optical density was measured at 450 nm on a microplate reader.

Molecule COC(=O)c1cc(OC)cc2oc3c(c(=O)c12)COC(C)(O)C3 (stereo not drawn) [Compound 5, Diaporchromone A] has an IC50 [1] of 34 µM, an IC50 [2] of 117 µM and an IC50 at 44 h [3] of 47 µM.
